System: healthy subjects
Assay: Symptom Checklist-90 Item (SCL-90)
Type: in vivo, human
Excerpt: In some embodiments, the Symptom Checklist-90 item (SCL-90) questionnaire is used to evaluate the safety and/or efficacy of psilocybin. The SCL-90 is a relatively brief self-report psychometric instrument designed to evaluate a broad range of psychological problems and symptoms of psychopathology. In some embodiments, the SCL-90 is used to assess somatization, obsessive-compulsive behaviors, interpersonal sensitivity, depression, anxiety, hostility, phobic anxiety, paranoid ideation, and psychoticism of a subject treated according to the methods of the disclosure. The 90 items in the questionnaire are scored on a 5-point Likert scale, indicating the rate of occurrence of the symptom during the time reference. In some embodiments, after treating according to the methods of the disclosure, a subject's SCL-90 score decreases by about 5% to about 100%, for example, by about 5%, about 10%, about 15%, about 20%, about 25%, about 30%, about 35%, about 40%, about 45%, about 50%, about 55%, about 60%, about 65%, about 70%, about 75%, about 80%, about 85%, about 90%, about 95%, or about 100%.
The Neuroticism Extraversion Openness-Five Factor Inventory (NEO-FFI) and Symptom Checklist-90 Item (SCL-90) were administered. Details of the MMRM applied to the change from baseline scores for the NEO-FFI and SCL-90 are provided below in Table 2Q.

[1] = Day 7, psilocybin 10 mg - placebo
[2] = Day 7, psilocybin 25 mg - 10 mg
[3] = Day 7, psilocybin 25 mg - placebo
[4] = Day 84, psilocybin 10 mg - placebo
[5] = Day 84, psilocybin 25 mg - 10 mg
[6] = Day 84, psilocybin 25 mg - placebo

CN(C)CCc1c[nH]c2cccc(OP(=O)(O)O)c12 [Psilocybin, psilocybin]
0.0: SCL-90 depression change from baseline, LS mean (Day 7, psilocybin 10 mg) | SCL-90 psychoticism change from baseline, LS mean (Day 7, psilocybin 10 mg) | SCL-90 depression change from baseline, LS mean difference [1] | SCL-90 paranoid ideation change from baseline, LS mean difference [1] | SCL-90 psychoticism change from baseline, LS mean difference [1] | SCL-90 depression change from baseline, LS mean (Day 7, psilocybin 25 mg) | SCL-90 interpersonal sensitivity change from baseline, LS mean (Day 7, psilocybin 25 mg) | SCL-90 phobic anxiety change from baseline, LS mean (Day 7, psilocybin 25 mg) | SCL-90 psychoticism change from baseline, LS mean (Day 7, psilocybin 25 mg) | SCL-90 anger hostility change from baseline, LS mean difference [2] | SCL-90 anxiety change from baseline, LS mean difference [2] | SCL-90 phobic anxiety change from baseline, LS mean difference [2] | SCL-90 psychoticism change from baseline, LS mean difference [2] | SCL-90 anxiety change from baseline, LS mean difference [3] | SCL-90 depression change from baseline, LS mean difference [3] | SCL-90 interpersonal sensitivity change from baseline, LS mean difference [3] | SCL-90 phobic anxiety change from baseline, LS mean difference [3] | SCL-90 psychoticism change from baseline, LS mean difference [3] | SCL-90-somatisation change from baseline, LS mean (Day 84, psilocybin 10 mg) | SCL-90 anger hostility change from baseline, LS mean (Day 84, psilocybin 10 mg) | SCL-90 interpersonal sensitivity change from baseline, LS mean (Day 84, psilocybin 10 mg) | SCL-90 phobic anxiety change from baseline, LS mean (Day 84, psilocybin 10 mg) | SCL-90-somatisation change from baseline, LS mean difference [4] | SCL-90 depression change from baseline, LS mean difference [4] | SCL-90-somatisation change from baseline, LS mean (Day 84, psilocybin 25 mg) | SCL-90 anger hostility change from baseline, LS mean (Day 84, psilocybin 25 mg) | SCL-90 interpersonal sensitivity change from baseline, LS mean (Day 84, psilocybin 25 mg) | SCL-90 phobic anxiety change from baseline, LS mean (Day 84, psilocybin 25 mg) | SCL-90 psychoticism change from baseline, LS mean (Day 84, psilocybin 25 mg) | SCL-90-somatisation change from baseline, LS mean difference [5] | SCL-90 anxiety change from baseline, LS mean difference [5] | SCL-90 depression change from baseline, LS mean difference [5] | SCL-90 interpersonal sensitivity change from baseline, LS mean difference [5] | SCL-90 paranoid ideation change from baseline, LS mean difference [5] | SCL-90 phobic anxiety change from baseline, LS mean difference [5] | SCL-90 psychoticism change from baseline, LS mean difference [5] | SCL-90-somatisation change from baseline, LS mean difference [6] | SCL-90 depression change from baseline, LS mean difference [6] | SCL-90 obsessive compulsive change from baseline, LS mean difference [6] | SCL-90 phobic anxiety change from baseline, LS mean difference [6]
−0.1: SCL-90 obsessive compulsive change from baseline, LS mean (Day 7, psilocybin 10 mg) | SCL-90 obsessive compulsive change from baseline, LS mean (Day 7, psilocybin 25 mg) | SCL-90 anxiety change from baseline, LS mean difference [4] | SCL-90 interpersonal sensitivity change from baseline, LS mean difference [4] | SCL-90 obsessive compulsive change from baseline, LS mean (Day 84, psilocybin 25 mg) | SCL-90 obsessive compulsive change from baseline, LS mean difference [5]
0.1: SCL-90-somatisation change from baseline, LS mean (Day 7, psilocybin 10 mg) | SCL-90-somatisation change from baseline, LS mean difference [1] | SCL-90 obsessive compulsive change from baseline, LS mean difference [1] | SCL-90-somatisation change from baseline, LS mean (Day 7, psilocybin 25 mg) | SCL-90 paranoid ideation change from baseline, LS mean (Day 7, psilocybin 25 mg) | SCL-90 interpersonal sensitivity change from baseline, LS mean difference [2] | SCL-90 paranoid ideation change from baseline, LS mean difference [2] | SCL-90-somatisation change from baseline, LS mean difference [3] | SCL-90 obsessive compulsive change from baseline, LS mean difference [3] | SCL-90 paranoid ideation change from baseline, LS mean difference [3] | SCL-90 depression change from baseline, LS mean (Day 84, psilocybin 10 mg) | SCL-90 paranoid ideation change from baseline, LS mean (Day 84, psilocybin 10 mg) | SCL-90 obsessive compulsive change from baseline, LS mean difference [4] | SCL-90 paranoid ideation change from baseline, LS mean difference [4] | SCL-90 depression change from baseline, LS mean (Day 84, psilocybin 25 mg) | SCL-90 paranoid ideation change from baseline, LS mean (Day 84, psilocybin 25 mg) | SCL-90 paranoid ideation change from baseline, LS mean difference [6]
−0.0: SCL-90 anger hostility change from baseline, LS mean (Day 7, psilocybin 10 mg) | SCL-90 anxiety change from baseline, LS mean (Day 7, psilocybin 10 mg) | SCL-90 interpersonal sensitivity change from baseline, LS mean (Day 7, psilocybin 10 mg) | SCL-90 paranoid ideation change from baseline, LS mean (Day 7, psilocybin 10 mg) | SCL-90 phobic anxiety change from baseline, LS mean (Day 7, psilocybin 10 mg) | SCL-90 anger hostility change from baseline, LS mean difference [1] | SCL-90 anxiety change from baseline, LS mean difference [1] | SCL-90 interpersonal sensitivity change from baseline, LS mean difference [1] | SCL-90 phobic anxiety change from baseline, LS mean difference [1] | SCL-90 anger hostility change from baseline, LS mean (Day 7, psilocybin 25 mg) | SCL-90 anxiety change from baseline, LS mean (Day 7, psilocybin 25 mg) | SCL-90-somatisation change from baseline, LS mean difference [2] | SCL-90 depression change from baseline, LS mean difference [2] | SCL-90 obsessive compulsive change from baseline, LS mean difference [2] | SCL-90 anger hostility change from baseline, LS mean difference [3] | SCL-90 anxiety change from baseline, LS mean (Day 84, psilocybin 10 mg) | SCL-90 obsessive compulsive change from baseline, LS mean (Day 84, psilocybin 10 mg) | SCL-90 psychoticism change from baseline, LS mean (Day 84, psilocybin 10 mg) | SCL-90 anger hostility change from baseline, LS mean difference [4] | SCL-90 phobic anxiety change from baseline, LS mean difference [4] | SCL-90 psychoticism change from baseline, LS mean difference [4] | SCL-90 anxiety change from baseline, LS mean (Day 84, psilocybin 25 mg) | SCL-90 anger hostility change from baseline, LS mean difference [5] | SCL-90 anger hostility change from baseline, LS mean difference [6] | SCL-90 anxiety change from baseline, LS mean difference [6] | SCL-90 interpersonal sensitivity change from baseline, LS mean difference [6] | SCL-90 psychoticism change from baseline, LS mean difference [6]
